Test results: article PMC12037037 (Proceedings of the National Academy of Sciences of the …, 2025)
Entries after “also recorded” stand apart in the source; their conditions may differ.

Tests used:
[1] = test system: Thy1-EGFP mice, layer 2/3 of the mPFC; experiment: In vivo spinogenesis after chronic corticosterone administration; conditions: 24 h, mean ± SEM
Method: In Vivo Spinogenesis after chronic corticosterone administration. Male and female Thy1-EGFP mice were given 1 week to acclimate to the new vivarium, then transferred to new cages (individually housed). Once individually housed, the mice were administered corticosterone (20 mg/kg; IP) in DMSO (2 mL/kg) or gently handled daily for 20 days. On day 21, mice were treated with VEH (saline) or (+)-JRT (1 mg/kg; IP). After 24 h, mice were anesthetized with isoflurane and transcardially perfused with paraformaldehyde (PFA, 4% in PBS, 7.4 pH). After extraction of the brains, samples were fixed in 4% PFA at 4° C overnight. The brains were cryo-protected by immersion in a 15% sucrose solution (15% sucrose in PBS w/v) overnight. Next, samples were placed in 30% sucrose solution (30% sucrose in PBS w/v) for at least 1 day. Samples were then embedded in optimal cutting temperature compound (OCT), sliced into 100 µm coronal sections using a cryostat, and mounted on slides which were left in the dark overnight to dry. Coverslips were mounted onto microscope slides using ProLong Gold. Slides were imaged on a Nikon HCA Spinning Disc confocal microscope equipped with a 100x/NA 1.45 oil objective. Images of dendrites and dendritic spines within layer 2/3 of the mPFC were captured and manually counted by a trained experimenter blinded to treatment conditions.

[2] = test system: C57BL/6J mice; experiment: Head-twitch response (HTR) assay; type: in vivo; conditions: (+)-JRT 1 mg/kg IP pretreatment 15 min + LSD 0.2 mg/kg IP; mean ± SEM
Method: Head-Twitch Response Assay. The HTR assay was performed using equal numbers of male and female C57BL/6J mice.
The mice were obtained from The Jackson Laboratory (Sacramento, CA) and were approximately 8 – 12 weeks old at the time of the experiments. After compound administration, animals were placed into an empty arena (40 cm x 40 cm) and filmed for 20 min. The arena was cleaned with 70% ethanol between trials.

[3] = target: T1, human ether-a-go-go related gene (hERG) channels (Homo sapiens, UniProt Q12809); experiment: hERG inhibition assay (Apconix); type: biochemical
T1 construct: Apconix
T1 sequence (Q12809 whole entry): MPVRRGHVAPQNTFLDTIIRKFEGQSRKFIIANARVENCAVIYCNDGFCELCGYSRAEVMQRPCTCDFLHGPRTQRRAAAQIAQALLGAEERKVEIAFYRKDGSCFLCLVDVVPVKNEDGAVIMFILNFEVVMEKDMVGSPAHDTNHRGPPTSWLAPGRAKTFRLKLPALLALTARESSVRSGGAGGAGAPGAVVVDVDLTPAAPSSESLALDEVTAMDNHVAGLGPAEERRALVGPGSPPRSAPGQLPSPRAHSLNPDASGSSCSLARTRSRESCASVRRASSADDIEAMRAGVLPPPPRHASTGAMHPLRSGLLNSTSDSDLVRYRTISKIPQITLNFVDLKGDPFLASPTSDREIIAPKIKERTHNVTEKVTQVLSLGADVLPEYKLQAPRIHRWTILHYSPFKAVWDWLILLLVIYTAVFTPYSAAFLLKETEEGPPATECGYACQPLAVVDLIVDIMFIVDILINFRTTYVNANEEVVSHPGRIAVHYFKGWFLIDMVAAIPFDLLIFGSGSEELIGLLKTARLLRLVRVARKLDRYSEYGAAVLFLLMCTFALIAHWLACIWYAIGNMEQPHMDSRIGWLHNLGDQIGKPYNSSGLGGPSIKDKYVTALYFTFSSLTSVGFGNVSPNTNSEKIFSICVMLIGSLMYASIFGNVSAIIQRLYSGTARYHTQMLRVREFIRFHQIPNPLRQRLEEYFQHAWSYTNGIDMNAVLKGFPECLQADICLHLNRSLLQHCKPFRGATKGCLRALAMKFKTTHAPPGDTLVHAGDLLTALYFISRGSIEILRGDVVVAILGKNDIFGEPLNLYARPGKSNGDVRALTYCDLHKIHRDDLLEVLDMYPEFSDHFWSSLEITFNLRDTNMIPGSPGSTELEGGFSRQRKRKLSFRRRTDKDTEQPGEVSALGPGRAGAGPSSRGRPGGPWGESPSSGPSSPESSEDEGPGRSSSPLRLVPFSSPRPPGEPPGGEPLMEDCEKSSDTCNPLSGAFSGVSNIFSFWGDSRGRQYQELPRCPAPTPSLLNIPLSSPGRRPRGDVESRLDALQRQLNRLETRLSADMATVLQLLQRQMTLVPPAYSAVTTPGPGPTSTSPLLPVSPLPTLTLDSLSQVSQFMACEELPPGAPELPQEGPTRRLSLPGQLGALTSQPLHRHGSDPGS
Method: (1 picture or pasted object on this page, not shown here)
Comparison Between WT and S242A5.46 psychLight Variants. Activity in WT and S242A5.46 mutant forms of PsychLight was quantified by deriving ligand activity ratios (log(Emax/EC50)). […]
and (+)-JRT were fit to a log(agonist) vs. response (three parameters) curve. The Emax/EC50 analysis was performed as previously described in detail by others (16):
Response = Basal + E!"# − Basal where Emax and Basal represent the top and bottom asymptotes of the curve fit, respectively; EC50 represents the concentration that gives a response halfway between Emax and Basal; and Log[A] is the logarithm of the agonist concentration. Then, ligand activity ratios, log(Emax/EC50) were calculated for each test ligand and statistical comparisons made between each other and between genotypes using a two-way ANOVA and significant interaction effects followed by a Šídák's multiple comparisons test.
ADME and hERG Inhbition Assays. […]
Briefly, 96 well plates were coated with poly-D-lysine and approximately 15,000 cells/well. […] Images were analyzed using the Simple Neurite Tracer and Sholl analysis plug-ins for ImageJ Fiji (version 1.51N). […] All images were taken and analyzed by an experimenter blinded to treatment conditions.
Spinogenesis Assays Using Cultured Rat Cortical Neurons. […] Images were analyzed using ImageJ Fiji (version 1.51N). […]

[4] = test system: C57BL/6J mice; experiment: 4-odor discrimination and reversal after unpredictable mild stress; type: in vivo
[5] = target: wild type human 5-HT2A receptor (psychLight2, PSYLI2 cells) (Homo sapiens, UniProt P28223); experiment: PsychLight assay, wild type; type: cell-based
wild type human 5-HT2A receptor (psychLight2, PSYLI2 cells), sequence (P28223 with tags, fused parts or gaps): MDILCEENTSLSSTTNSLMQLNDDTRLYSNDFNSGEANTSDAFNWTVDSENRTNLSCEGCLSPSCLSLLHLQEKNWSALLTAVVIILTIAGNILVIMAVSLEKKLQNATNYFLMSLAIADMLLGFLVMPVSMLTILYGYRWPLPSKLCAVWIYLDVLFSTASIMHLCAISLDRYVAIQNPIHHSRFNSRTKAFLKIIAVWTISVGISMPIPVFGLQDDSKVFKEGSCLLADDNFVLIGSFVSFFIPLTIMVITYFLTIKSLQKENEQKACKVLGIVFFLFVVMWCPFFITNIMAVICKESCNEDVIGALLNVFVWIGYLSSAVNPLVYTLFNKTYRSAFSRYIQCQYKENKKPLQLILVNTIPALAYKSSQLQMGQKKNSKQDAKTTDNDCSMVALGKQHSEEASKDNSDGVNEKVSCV
wild type human 5-HT2A receptor (psychLight2, PSYLI2 cells), sequence (P42212 with tags, fused parts or gaps partner): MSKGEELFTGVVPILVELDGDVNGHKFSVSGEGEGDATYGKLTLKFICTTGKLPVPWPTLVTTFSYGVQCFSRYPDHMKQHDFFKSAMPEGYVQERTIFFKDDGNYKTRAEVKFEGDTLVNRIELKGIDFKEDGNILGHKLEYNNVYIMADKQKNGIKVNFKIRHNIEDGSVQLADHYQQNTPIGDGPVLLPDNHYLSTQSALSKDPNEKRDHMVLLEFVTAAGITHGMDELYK
Method: PsychLight Assays. Psychlight assays were performed using a previously published method (15) with slight modifications.
Briefly, a solution of PSYLI2 cells suspended in DMEM containing 10% FBS with 5% penicillin-streptomycin was added to
poly-D-lysine-coated glass bottom 96-well plates. The cells were plated at a density of 60,000 cells/well for the inner 60
wells and 90,000 cells/well for the outer 36 wells and incubated at 37°C with 5% CO2 for 18–24 h prior to each experiment.
On the day of each experiment, the DMEM solution was replaced with 100 µL/well Hoechst solution (2 µM in HBSS) and
incubated for 30 min at 37°C with 5% CO2. Plates were then washed 3x 200 µL HBSS and replaced with 160 µL/well of
assay buffer (HBSS with 0.5 mM HEPES buffer, adjusted to pH = 7.4 with 1 M NaOH) and incubated for 30 min (37°C, 5%
CO2). The cells were then imaged on a Thermo Scientific CellInsight CX7 LZR High Content Analysis Platform at 10X
(37°C, 5% CO2). Images from nine regions of interest (ROI) per well were obtained following the default ROI pattern with
no bias to location and no overlap of the ROIs. Baseline images were collected prior to drug addition. […]
activation was quantified using the built-in Target Validation Assay (version 6.0.1.4021) on the Thermo Scientific HCS Studio […]
objects (psychLight signal) were defined as signal within 12 pixels of the primary objects. PsychLight signal was calculated […]

[6] = target: 5-HT2 receptors (5-HT2A, 5-HT2B, 5-HT2C); experiment: Competitive radioligand binding assays at 5-HT2 receptors; conditions: read-out: Ki range, entire family of 5-HT2 receptors; free base
Text: Radioligand binding (RLB) (top) and IP1 functional assays
(bottom) for 5-HT2A (A), 5-HT2B (B), and 5-HT2C (C) receptors. (D) The PathHunter® β-arrestin assay was used to
HT2A receptors. Data represent the mean ± SEM of 2–6 biological replicates (performed in duplicate), with the sole
exception that the β-arrestin data for (–)-JRT represents a single biological replicate averaged from 2 technical replicates.
Drugs. Many of the drugs used in these studies were purchased from commercial sources including (+)-amphetamine sulfate (Sigma Aldrich, 1180004), ketamine hydrochloride (Spectrum, K1068), and ketanserin (APExBIO, B2248).
JRT were synthesized in-house and judged to be analytically pure based on NMR and LC-MS data. For cell culture experiments, VEH = 0.1% (agonist studies) or 0.2% (antagonist studies) molecular biology grade dimethyl sulfoxide (Sigma-Aldrich).
Fumarate salts of (+)-JRT and (–)-JRT were used for all biological studies unless noted otherwise.

[7] = Pharmacokinetics studies (plasma and brain); type: in vivo, rats
Method: Pharmacokinetic studies of (+)-JRT.
rats following a 1 mg/kg IP administration of (+)-JRT fumarate (N = 3).
JRT in the brains of rats following a 1 mg/kg IP administration of (+)-JRT fumarate (N = 3 for the 0.25, 0.5, and 1.0 h time
points, N = 1 for the 2.0 h time point).
Pharmacokinetics Studies. […] Male Sprague Dawley rats (190 – 206 g) were purchased from Shanghai JiHui Laboratory Animal Co., Ltd (Shaghai, China) and were administered (+)-JRT fumarate via IP injection (1 mg/kg, 5 mL/kg) after overnight fasting. Animals were sacrificed and plasma and brain samples were collected at time points of 0.25, 0.5, 1, 2, and 4 hours post dose (N = 3 per time point). Approximately 150 μL of blood was collected into a K2EDTA tube via jugular vein. Blood samples were put on wet ice and centrifuged to obtain plasma samples (2000 g, 5 min, 4 °C) within 15 min. After blood collection, a mid-line incision was made into the scalp and the skin retracted. The skull overlaying the brain was removed, and the whole brain was collected, rinsed with cold saline, dried on filter paper, weighed, and snap frozen via dry ice. Plasma and brain samples were stored at approx. -70 °C until analysis.
For plasma samples, an aliquot of 30 μL sample was mixed with 200 μL internal standard (IS) (propranolol, 40 ng/mL in MeCN). The mixture was vortexed for 1 min and centrifuged at 5800 rpm for 10 min. The supernatant was collected and 0.5 μL was injected for LC-MS/MS analysis. Brain samples were homogenized with 2 volumes (v/w) of PBS (dilution factor of 3). The procedure for diluted brain samples was the same as the plasma samples. Plasma concentrations are reported as ng/mL and brain concentrations, with a dilution factor of 3 applied, are reported as ng/g. […]
1.61 min and 1.43 min respectively, and the analytes were ionized under a positive ion spray mode and detected through […]

[8] = test system: E18 rat embryonic cortical neurons (DIV18-19); experiment: Spinogenesis assay using cultured rat cortical neurons; type: cell-based
[9] = test system: male Long Evans rats; experiment: Probabilistic reward task (PRT) under chronic cold-water stress; type: in vivo; conditions: for Response bias (log b) (Figure 6G): JRT 1 mg/kg

CCN(CC)C(=O)[C@@H]1C=C2c3cccc4ccn(c34)C[C@H]2N(C)C1 [(+)-JRT]
Dendritic spine density, layer 2/3 mPFC (Table S1, matches Fig. 4N) ([1]; GH (gentle handling) + JRT 1 mg/kg IP, GH VEH 12.17 ± 0.5278): 11.36 ± 0.8451
Dendritic spine density, layer 2/3 mPFC (Table S1, matches Fig. 4N) ([1]; chronic CORT 20 d + JRT 1 mg/kg IP): 10.77 ± 0.5664
Head-twitches over 20 min (Figure 5A Antagonism) [2]: 1.500 ± 0.3450
hERG channel inhibition [3]: does not inhibit hERG channels; also recorded: did not inhibit
Discrimination (Figure 7B) ([4]; (+)-JRT 1 mg/kg IP + Stress (UMS), VEH + Stress 20.20 ± 1.843, VEH – Stress 21.27 ± 2.516): 20.50 ± 2.212
Reversal (Figure 7B) ([4]; (+)-JRT 1 mg/kg IP + Stress (UMS), VEH + Stress 21.00 ± 2.385, VEH – Stress 13.64 ± 1.744): 12.40 ± 1.118
Total Trials (Figure S17) ([4]; Stress + (+)-JRT 1 mg/kg IP, Stress 41.20 ± 3.972, VEH 34.91 ± 2.661): 32.90 ± 2.479
EC50 [5]: 90 nM
Emax ([5]; read-out: psychLight (WT): EMax): 33%
Ki [6]: 2 to 184 nM
Presence in rat brain and plasma within 2 h ([7]; 1 mg/kg IP dose): nearly absent
Levels in plasma or brain at 4 h ([7]; 1 mg/kg IP, (+)-JRT fumarate, rats): below the limit of quantification
Brain concentration relative to the Ki at the 5-HT2AR ([7]; 1 mg/kg, rat): ~ 20 fold
Dendritic spine growth in mature cortical cultures ([8]; 1 μM, 24 h, DIV19, compared to vehicle (P < 0.0001) and CLZ (P = 0.0005)): promoted dendritic spine growth
Effect of ketanserin (10 μM) pretreatment on compound-induced dendritic spine density ([8]; compound 1 μM): blocks
Persistence of the effect on response bias following a single dose ([9]; 1 mg/kg, continued daily cold-water stress): at least 3 d
Response bias (log b) (Figure 6G) ([9]; Day 2, Day 1 0.131 ± 0.082): 0.406 ± 0.069
Response bias (log b) (Figure 6G) ([9]; Day 3, Day 1 0.131 ± 0.082): 0.474 ± 0.112
Response bias (log b) (Figure 6G) ([9]; Day 11, Day 1 0.131 ± 0.082): 0.290 ± 0.061
Response bias (log b) (Figure 6G) ([9]; Day 1 (stressed, before drug) 0.131 ± 0.082): 0.491 ± 0.071
